The text below walks through data of US20250197382A1, “KIF18A INHIBITOR” (WIGEN BIOMEDICINE TECHNOLOGY (SHANGHAI) CO., LTD., priority 2022, published 2025).

As usually defined, the IC50 is the concentration that inhibits the measured activity by half.

Where only a bound is given, the exact number is not on record here.

Sequence of Recombinant human KIF18A (1-467His-tagged) protein (Q8NI77 1-467): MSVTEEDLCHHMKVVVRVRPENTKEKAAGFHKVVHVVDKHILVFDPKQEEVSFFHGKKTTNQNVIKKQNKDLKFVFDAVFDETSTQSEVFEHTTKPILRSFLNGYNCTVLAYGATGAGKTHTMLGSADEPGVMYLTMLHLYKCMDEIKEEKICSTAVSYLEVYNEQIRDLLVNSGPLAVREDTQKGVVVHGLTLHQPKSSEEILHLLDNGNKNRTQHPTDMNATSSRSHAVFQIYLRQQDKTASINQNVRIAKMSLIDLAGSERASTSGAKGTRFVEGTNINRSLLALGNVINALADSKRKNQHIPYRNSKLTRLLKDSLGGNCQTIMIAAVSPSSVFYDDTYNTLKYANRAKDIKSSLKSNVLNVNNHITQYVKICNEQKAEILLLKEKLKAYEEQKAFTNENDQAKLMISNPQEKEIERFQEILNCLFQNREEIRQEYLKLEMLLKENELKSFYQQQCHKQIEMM
Sequence of Recombinant human KIF18A (1-467His-tagged) protein (P02550 whole entry partner): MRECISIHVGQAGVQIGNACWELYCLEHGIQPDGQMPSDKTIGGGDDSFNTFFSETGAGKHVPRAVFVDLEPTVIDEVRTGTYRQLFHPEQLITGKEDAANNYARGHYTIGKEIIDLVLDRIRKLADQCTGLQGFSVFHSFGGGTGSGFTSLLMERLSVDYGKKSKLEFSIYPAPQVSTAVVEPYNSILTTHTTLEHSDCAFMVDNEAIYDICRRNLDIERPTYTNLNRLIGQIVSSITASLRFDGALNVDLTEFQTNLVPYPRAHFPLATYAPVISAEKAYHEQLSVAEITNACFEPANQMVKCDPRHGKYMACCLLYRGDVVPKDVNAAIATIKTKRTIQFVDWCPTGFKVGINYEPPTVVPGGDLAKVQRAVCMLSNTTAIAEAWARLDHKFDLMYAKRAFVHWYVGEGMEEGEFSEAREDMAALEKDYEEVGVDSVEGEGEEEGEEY
Sequence of Recombinant human KIF18A (1-467His-tagged) protein (P02554 whole entry partner): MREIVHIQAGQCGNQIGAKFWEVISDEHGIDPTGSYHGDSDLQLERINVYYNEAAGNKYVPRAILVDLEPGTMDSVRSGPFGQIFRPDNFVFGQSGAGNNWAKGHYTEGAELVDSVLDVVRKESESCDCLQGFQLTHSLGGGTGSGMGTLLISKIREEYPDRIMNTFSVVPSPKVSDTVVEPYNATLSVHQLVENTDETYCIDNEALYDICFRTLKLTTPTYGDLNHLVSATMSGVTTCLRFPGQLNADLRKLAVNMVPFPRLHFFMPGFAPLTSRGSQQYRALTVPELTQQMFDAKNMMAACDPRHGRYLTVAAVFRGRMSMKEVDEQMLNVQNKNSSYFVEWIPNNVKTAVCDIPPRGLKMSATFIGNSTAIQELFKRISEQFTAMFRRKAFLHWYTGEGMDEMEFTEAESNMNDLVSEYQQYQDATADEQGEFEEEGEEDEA

The assay addresses Recombinant human KIF18A (1-467His-tagged) protein (Homo sapiens (Human), UniProt Q8NI77). Nature of the assay: KIF18A enzyme assay (microtubule-stimulated ATPase activity, ADP-Glo). The class given is biochemical. As to conditions: 30 nM KIF18A, ATP 75 μM, read-out: inhibitory activity against KIF18A IC50. As for the experimental part:
Biological Example 1. Assay for In Vitro Inhibition of Enzymatic Activity of KIF18A by Compounds of the Present Invention
KIF18A enzyme assay: The enzymatic activity of KIF18A after treatment with the compounds was measured by an assay of microtubule-stimulated ATPase activity. ADP generated from the ATPase reaction was measured in this assay. The compounds were serially diluted 2-fold in DMSO over a range of 22 concentration points. Recombinant human KIF18A (1-467His-tagged) protein was expressed using a baculovirus system. Concentrations of KIF18A protein, microtubules, and ATP in the reaction were optimized for a standardized homogenous enzyme assay using an ADP-Glo kinase/ATPase assay kit. A reaction buffer [(15 mM Tris, pH 7.5), 10 mM MgCl2, 0.01% PluronicF-68, 1 μM paclitaxel, and 30 μg/mL pig microtubules] was prepared. The compounds and KIF18A protein (30 nM) were added to the prepared reaction buffer, and the reaction mixture was incubated at room temperature for 15 min, followed by addition of ATP (Km, 75 μM). The resulting reaction mixture was incubated at room temperature for another 15 min. 5 μL of ADP-Glo reagent and 2.5 μL of the reaction mixture were mixed and the resulting mixture was incubated at room temperature for 40 min. 10 μL of ADP-Glo detection reagent was added and the mixture was incubated at room temperature for 40 min. Luminescence was measured using a microplate reader and compared with that of the DMSO group, and then the inhibition percentages and IC50 values of the compounds were calculated.
In the case of `Cn1ccc2cc(NC(=O)c3ccc(S(=O)(=O)NCCO)cc3N3CCC4(CC3)CC4)nc(N3CC4CC4C3)c21` (stereo not drawn) [Compound 474], the IC50 is no more than 100 nM.
The figure for `Cn1ccc2cc(C(=O)Nc3ccc(S(=O)(=O)NCCO)cc3N3CCC4(CC3)CC4)cc(N3CC4CC4C3)c21` (stereo not drawn) [Compound 442] is no more than 100 nM; for `O=C(Nc1ccc(NS(=O)(=O)CCO)cc1N1CCC2(CC1)CC2)c1cc2ccoc2c(N2CC3CC3C2)n1` (stereo not drawn) [Compound 234] it is no more than 100 nM.
The figure for `O=C(Nc1cc2c(c(N3CCC(F)(F)CC3)n1)OCCC2)c1ccc(S(=O)(=O)NCCO)cc1N1CCC2(CC1)CC2` [Compound 549] is no more than 100 nM.
The figure for `O=C(Nc1ccc(NS(=O)(=O)CCO)cc1N1CCC2(CC1)CC2)c1cc2ccoc2c(N2CCC(F)CC2)n1` [Compound 233] is no more than 100 nM.
For `Cn1ccc2cc(C(=O)Nc3ccc(NS(=O)(=O)CCO)cc3N3CCC4(CC3)CC4)cc(N3CCC(C)(F)C3)c21` (stereo not drawn) [Compound 424], the IC50 is no more than 100 nM.
The figure for `Cn1ccc2cc(NC(=O)c3ccc(S(=O)(=O)NCCO)cc3N3CCC4(CC3)CC4)nc(N3CCC(F)CC3)c21` [Compound 473] is no more than 100 nM; for `Cn1ccc2cc(C(=O)Nc3ccc(NS(=O)(=O)CCO)cc3N3CCC4(CC3)CC4)nc(N3CCC(C)(F)C3)c21` (stereo not drawn) [Compound 488] it is no more than 100 nM.
The figure for `CC(C)(CO)Nc1cc(C(=O)Nc2ccc(NS(=O)(=O)CCO)cc2N2CCC3(CC2)CC3)cc2ccoc12` [Compound 171] is no more than 100 nM.
Regarding `C[C@@H]1CN(c2nc(C(=O)Nc3ccc(NS(=O)(=O)CCO)cc3N3CCC4(CC3)CC4)cc3ccoc23)CCO1` [Compound 226], the half-inhibitory concentration (IC50) is no more than 100 nM.
The figure for `O=C(Nc1ccc(S(=O)(=O)NCCO)cc1N1CCC2(CC1)CC2)c1cc2c(c(N3CCC(F)CC3)n1)OCC2` [Compound 121] is no more than 100 nM; for `CC(C)(CO)Nc1nc(NC(=O)c2ccc(S(=O)(=O)NCCO)cc2N2CCC3(CC2)CC3)cc2c1OCC2` [Compound 91] it is no more than 100 nM; for `O=C(Nc1ccc(S(=O)(=O)NCCO)cc1N1CCC2(CC1)CC2)c1cc2ccoc2c(N2CCC(F)CC2)n1` [Compound 249] it is no more than 100 nM.
For `C[C@H](CO)NS(=O)(=O)c1ccc(C(=O)Nc2cc3c(c(N4CCO[C@H](C)C4)n2)OCC3)c(N2CCC3(CC2)CC3)c1` [Compound 96], the 50% inhibitory concentration (IC50) was no more than 100 nM.
The figure for `Cn1ccc2cc(NC(=O)c3ccc(S(=O)(=O)NCCO)cc3N3CCC4(CC3)CC4)nc(N3CCC(C)(F)C3)c21` (stereo not drawn) [Compound 472] is no more than 100 nM.
Consider `O=C(Nc1ccc(S(=O)(=O)NCCO)cc1N1CCC2(CC1)CC2)c1cc2c(c(N3CC(F)(F)C3)n1)OCC2` [Compound 116], for which the IC50 was no more than 100 nM.
The figure for `C[C@@H]1CN(c2nc(C(=O)Nc3ccc(NS(=O)(=O)CCO)cc3N3CCC4(CC3)CC4)cc3c2OCC3)CCO1` [Compound 98] is no more than 100 nM; for `C[C@H](CO)NS(=O)(=O)c1ccc(NC(=O)c2cc(N3CCC(F)(F)CC3)c3c(ccn3C)c2)c(N2CCC3(CC2)CC3)c1` [Compound 446] it is no more than 100 nM; for `O=C(Nc1ccc(NS(=O)(=O)CCO)cc1N1CCC2(CC1)CC2)c1cc2c(c(N3CCOCC3)n1)OCC2` [Compound 108] it is no more than 100 nM.
The figure for `O=C(Nc1ccc(S(=O)(=O)NCCO)cc1N1CCC2(CC1)CC2)c1cc(N2CC3CC3C2)c2occc2c1` (stereo not drawn) [Compound 186] is no more than 100 nM.
The figure for `Cn1ccc2cc(C(=O)Nc3ccc(S(=O)(=O)NCCO)cc3N3CCC4(CC3)CC4)cc(N3CCC(C)(F)C3)c21` (stereo not drawn) [Compound 440] is no more than 100 nM; for `O=C(Nc1cc(N2CC3CC3C2)c2occc2c1)c1ccc(S(=O)(=O)NCCO)cc1N1CCC2(CC1)CC2` (stereo not drawn) [Compound 154] it is no more than 100 nM.
Take `Cn1ccc2cc(NC(=O)c3ccc(NS(=O)(=O)CCO)cc3N3CCC4(CC3)CC4)nc(N3CCC(F)CC3)c21` [Compound 457]: the IC50 is no more than 100 nM.
The figure for `CN1CCc2cc(NC(=O)c3ccc(S(=O)(=O)NCCO)cc3N3CCC4(CC3)CC4)nc(OC3CCC3)c21` [Compound 343] is no more than 100 nM.
